The results in this text go back to the supplement of paper PMC11061612.

Holding throughout (assay): combination Emax (second highest fraction inhibited in the dose matrix, 72 h); higher = more inhibition; extreme values may be limits of the assay
The subject of experiment [1] is SK-GT-4 (Esophageal Adenocarcinoma). In outline: (§1)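 After 24 hours at 37°C and 5% CO2 in 1536-well plates, cells in DMEM/F12 or RPMI plus 10% FBS received two-drug dose matrices for 72 hours. Viability came from CellTiter-Glo 2.0 luminescence and was scaled as inhibition, anchored at 0 by vehicle wells and at 1 by blank wells. Combination Emax is taken as the second-highest inhibition in the matrix, and Bliss excess as the observed combination effect less EA + EB − EA·EB, with EA and EB the single-agent effects.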

The test system of experiment [2] is COR-L279 (Small Cell Lung Carcinoma). In outline:
as §1

The test system of experiment [3] is DMS-114 (Small Cell Lung Carcinoma). In outline:
as §1

The subject of experiment [4] is NCI-H526 (Small Cell Lung Carcinoma). Put shortly:
as §1

Experiment [5] deals with CW-2 (Colorectal Carcinoma). Put shortly:
as §1

In experiment [6] the test system is NCCIT (Other Solid Carcinomas). In outline: as §1
For experiment [7], the system named is KU812 (Chronic Myelogenous Leukemia). Put shortly:
as §1

Experiment [8] has as its system ST486 (Burkitt's Lymphoma). In outline:
as §1

In experiment [9] the test system is VMRC-RCZ (Kidney Carcinoma). Put shortly:
as §1

Experiment [10] has as its system T-T (Esophageal Squamous Cell Carcinoma). Put shortly:
as §1

Experiment [11] concerns MOG-G-CCM (Low Grade Glioma). In outline:
as §1

The test system of a further experiment is M059J (Glioblastoma). In outline: as §1
In experiment [12] the test system is KYSE-270 (Esophageal Squamous Cell Carcinoma). In outline:
as §1

The test system of experiment [13] is NCI-H3122 (Lung Adenocarcinoma). In outline: as §1
The test system of experiment [14] is OCI-AML3 (Acute Myeloid Leukemia). Put shortly:
as §1

For experiment [15], the system named is NCI-H520 (Squamous Cell Lung Carcinoma). In outline:
as §1

In experiment [16] the test system is MN-60 (B-Lymphoblastic Leukemia). Put shortly: as §1
The subject of experiment [17] is KP-3 (Pancreatic Carcinoma). In outline:
as §1

A further experiment has as its system SJSA-1 (Osteosarcoma). In outline:
as §1

Experiment [18] concerns NCI-H929 (Plasma Cell Myeloma). Put shortly:
as §1

For the compound `C[C@@H](Nc1cc(F)cc(F)c1)c1cc(C(=O)N(C)C)cc2c(=O)cc(N3CCOCC3)oc12` [AZD8186] + CC(=O)c1c(C)c2cnc(Nc3ccc(N4CCNCC4)cn3)nc2n(C2CCCC2)c1=O [Palbociclib] (first compound max 10 µM, 7x7, partner max 10 µM), the “combination Emax” value turned out to be 0.422 in [1]; 0.909 in experiment [2]; 0.468 in experiment [3]; 0.081 in experiment [4]; 0.374 in [5]; 0.542 in experiment [6]. Moreover, the “combination Emax” value in experiment [7] is 0.582; in experiment [8], 0.813; in experiment [9] it was 0.42; in [10], 0.315; in experiment [11], 0.519; in the experiment with M059J (Glioblastoma), 0.337. The “combination Emax” value was found to be 0.311 in [12]; 0.742 in [13]; 0.525 in experiment [14]; 0.688 in experiment [15]; 0.502 in [16]; 0.283 in experiment [17]. The “combination Emax” value with SJSA-1 (Osteosarcoma) amounted to 0.376; in [18], 0.99.

`CS(=O)(=O)CCNCc1ccc(-c2ccc3ncnc(Nc4ccc(OCc5cccc(F)c5)c(Cl)c4)c3c2)o1` [Lapatinib] + NC1(c2ccc(-c3nc4ccn5c(=O)[nH]nc5c4cc3-c3ccccc3)cc2)CCC1 [MK-2206] (first compound max 10 µM, 7x7, partner max 10 µM): the “combination Emax” value in [1] is 0.7; in experiment [2], 0.978; in experiment [3] it was 0.893; in experiment [4], 0.864; in experiment [5] it was 0.611; in experiment [6], 0.883. Further, the “combination Emax” value in experiment [7] was determined as 0.917; in experiment [8], 0.908; in experiment [9], 0.408; in experiment [10], 0.928; in experiment [11] it was 0.523; with M059J (Glioblastoma), 0.756. Also, the “combination Emax” value in experiment [12] was 0.913; in experiment [13] it was 0.653; in [14], 0.683; in experiment [15], 0.922; in experiment [16] it was 0.904; in [17], 0.205. Besides, the figures for the “combination Emax” value (with SJSA-1 (Osteosarcoma); in experiment [18]) were 0.897 and 1, respectively.

In the case of `CN(CCO)CC[C@H](CSc1ccccc1)Nc1ccc(S(=O)(=O)NC(=O)c2ccc(N3CCC([C@@H](O)c4ccccc4-c4ccc(Cl)cc4)CC3)cc2)cc1S(=O)(=O)C(F)(F)F` [AZD4320] + CS(=O)(=O)CCNCc1ccc(-c2ccc3ncnc(Nc4ccc(OCc5cccc(F)c5)c(Cl)c4)c3c2)o1 [Lapatinib] (first compound max 1 µM, 7x7, partner max 10 µM), the “combination Emax” value worked out at 0.774 in [1]; 1 in experiment [2]; 0.36 in [3]; 0.995 in experiment [4]; 0.593 in [5]; 0.243 in experiment [6]. Also, the “combination Emax” value in experiment [7] stood at 0.973; in [8] it was 0.96; in [9], 0.598; in experiment [10], 0.935; in experiment [11], 0.729; in the experiment with M059J (Glioblastoma) it was 0.705. Also, the “combination Emax” value in experiment [12] stood at 0.708; in [13], 0.281; in experiment [14] it was 0.884; in [15] it was 0.57; in experiment [16], 0.206; in experiment [17] it was 0.363. For the same compound, the “combination Emax” value with SJSA-1 (Osteosarcoma) is 0.332; in experiment [18], 0.589.
